This note sets out measurements from article PMC9552234.

The nature of the data set: amide bond formation (macrolactamization of free amino acid tripeptides containing anthranilic acid), HATU (1.2 equiv), Et3N (1.2 equiv), high dilution. As to conditions: 10-membered ring, CH2Cl2, 3.0 mM, 0.0 °C, 2 steps.

SMILES strings stand for the structures.

With `CC(=O)n1cc(C[C@@H]2NC(=O)c3ccccc3NC(=O)[C@H](C(C)C)NC2=O)c2ccccc21` [H-Trp(1-Ac)-Val-Abz(2)-OH], the ring closure, yield over several steps (from CC(=O)n1cc(C[C@H](N)C(=O)N[C@H](C(=O)Nc2ccccc2C(=O)O)C(C)C)c2ccccc21) was determined as 0%.
Consider `C=CC(C)(C)[C@]12C[C@H]3C(=O)N[C@@H](C(C)C)C(=O)Nc4ccccc4C(=O)N3[C@H]1N(C(C)=O)c1ccccc12` [endo-69 -> L-Trp-endo-11 (slow addition; decomposition)], for which, where the note is “from C=CC(C)(C)[C@]12C[C@@H](C(=O)O)N(C(=O)c3ccccc3NC(=O)[C@@H](N)C(C)C)[C@H]1N(C(C)=O)c1ccccc12”, the ring closure, yield over several steps turned out to be 0%.
Turning to `C=CC(C)(C)[C@]12C[C@H]3C(=O)N[C@@H](C(C)C)C(=O)Nc4ccccc4C(=O)N3[C@H]1N(C(C)=O)c1ccccc12` [endo-75 -> L-Trp-endo-11 (incl. Boc removal)], the ring closure, yield over several steps (from C=CC(C)(C)[C@]12C[C@@H](C(=O)N[C@H](C(=O)Nc3ccccc3C(=O)O)C(C)C)N[C@H]1N(C(C)=O)c1ccccc12, 2.0 h) turned out to be 87%.
On to `C=CC(C)(C)[C@@]12C[C@H]3C(=O)N[C@@H](C(C)C)C(=O)Nc4ccccc4C(=O)N3[C@@H]1N(C(C)=O)c1ccccc12` [exo-75 -> L-Trp-exo-11 (incl. Boc removal)], for which, under “from C=CC(C)(C)[C@@]12C[C@@H](C(=O)N[C@H](C(=O)Nc3ccccc3C(=O)O)C(C)C)N[C@@H]1N(C(C)=O)c1ccccc12, 1.5 h”, the ring closure, yield over several steps was 97%.
Take `CC(=O)N1c2ccccc2[C@@H]2C[C@H]3C(=O)N[C@@H](C(C)C)C(=O)Nc4ccccc4C(=O)N3[C@@H]21` (mixture of isomers) [exo-47 -> exo-48 (1 step, from exo/endo mixture)]: where the note is “from CC(=O)N1c2ccccc2[C@@H]2C[C@@H](C(=O)N[C@H](C(=O)Nc3ccccc3C(=O)O)C(C)C)N[C@@H]21, 1.0 h”, the ring closure, yield over several steps worked out at 29%.
For `CC(=O)n1cc(C[C@H]2NC(=O)c3ccccc3NC(=O)[C@H](C(C)C)NC2=O)c2ccccc21` [H-D-Trp(1-Ac)-Val-Abz(2)-OH], the ring closure, yield over several steps (from CC(=O)n1cc(C[C@@H](N)C(=O)N[C@H](C(=O)Nc2ccccc2C(=O)O)C(C)C)c2ccccc21, 1.17 h) was 53%.
For `CC(C)[C@@H]1NC(=O)[C@@H](Cc2cn(C(=O)OC(C)(C)C)c3ccccc23)NC(=O)c2ccccc2NC1=O` [H-D-Trp(1-Boc)-Val-Abz(2)-OH], the ring closure, yield over several steps (from CC(C)[C@H](NC(=O)[C@H](N)Cc1cn(C(=O)OC(C)(C)C)c2ccccc12)C(=O)Nc1ccccc1C(=O)O, 0.83 h) was determined as 56%.
As for `CC(=O)N1c2ccccc2[C@H]2C[C@H]3C(=O)N[C@@H](C(C)C)C(=O)Nc4ccccc4C(=O)N3[C@H]21` (mixture of isomers) [endo-47 -> endo-48 (1 step, from exo/endo mixture)], the ring closure, yield over several steps (from CC(=O)N1c2ccccc2[C@H]2C[C@@H](C(=O)N[C@H](C(=O)Nc3ccccc3C(=O)O)C(C)C)N[C@H]21, 1.0 h) is 19%.
On to `C=CC(C)(C)[C@@]12C[C@H]3C(=O)N[C@@H](C(C)C)C(=O)Nc4ccccc4C(=O)N3[C@@H]1N(C(C)=O)c1ccccc12` [exo-69 -> L-Trp-exo-11 (slow addition; trace)], for which the ring closure, yield over several steps (from C=CC(C)(C)[C@@]12C[C@@H](C(=O)O)N(C(=O)c3ccccc3NC(=O)[C@@H](N)C(C)C)[C@@H]1N(C(C)=O)c1ccccc12) was determined as 0%.
